This passage reports DC50 and Dmax results from patent US20260317324A1, “BIFUNCTIONAL COMPOUNDS FOR DEGRADING BRAF VIA UBIQUITIN PROTEOSOME PATHWAY” (Nurix Therapeutics, Inc., priority 2023, published 2026).

Usually DC50 stands for the midpoint of the concentration-degradation curve. Low values mean a more potent degrader, high ones a less potent degrader. A word on the Dmax: it is the largest share of the target that was removed. High values mean a fuller loss of target, low ones a partial loss of target.

What all share (type): cell-based
One test deals with T1, BRAF V600E (Homo sapiens, UniProt P15056, V600E).
T1 construct: endogenous C-terminal HiBiT fusion tag on BRAF V600E allele; endogenous in cells; host or cells: A375 clone 1F10 (CRISPR-Cas9 knock-in of the HiBiT tag; parental A375 from ATCC)
Description: BRAF HiBiT degradation assay, C-terminal HiBiT-tagged BRAF V600E A375 cells (clone 1F10), Nano-Glo HiBiT Lytic assay. To be noted: for Dmax: A-375. In outline: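 Degradation is measured as loss of HiBiT signal from BRAF V600E tagged at its native locus in A375 cells. Doses span 1 μM to 0.01 nM in half-log steps, in duplicate. Percent remaining is calculated against DMSO controls after subtracting untagged A375 background, and curve fitting yields DC50 and observed Dmax.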
Background: HiBiT is a short tag that completes a luciferase, so light tracks the accessible tagged protein.

A further test deals with T2, BRAF G469A (Homo sapiens, UniProt P15056, G469A).
T2 construct: Horizon Discovery (HCT-116 BRAF−/− cells); host or cells: HCT-116 BRAF−/− cells, clone 34, lentiviral transduction
As to the kind of experiment: BRAF HiBiT degradation assay, C-terminal HiBiT-tagged BRAF G469A overexpressed in HCT-116 BRAF−/− cells (clone 34), Nano-Glo HiBiT Lytic assay. In short, it runs like this: (§1)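 First, the stable HiBiT-tagged cells were plated and incubated for 24 h. Next, compound was added in duplicate as an 11-point series with a 1 μM top concentration. Lytic detection followed, with DMSO-treated parental cells used for background. Finally, DC50 and Obs. Dmax relative to DMSO were derived from the % protein remaining curves.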

The target of the next test is T3, BRAF D594G (Homo sapiens, UniProt P15056, D594G).
T3 construct: Horizon Discovery (HCT-116 BRAF−/− cells); host or cells: HCT-116 BRAF−/− cells, clone 63, lentiviral transduction
Description: BRAF HiBiT degradation assay, C-terminal HiBiT-tagged BRAF D594G overexpressed in HCT-116 BRAF−/− cells (clone 63), Nano-Glo HiBiT Lytic assay. In short, it runs like this:
as §1

The target of the next test is T4, BRAF G466V (Homo sapiens, UniProt P15056, G466V).
T4 construct: Horizon Discovery (HCT-116 BRAF−/− cells); host or cells: HCT-116 BRAF−/− cells, clone 8, lentiviral transduction
As to the kind of experiment: BRAF HiBiT degradation assay, C-terminal HiBiT-tagged BRAF G466V overexpressed in HCT-116 BRAF−/− cells (clone 8), Nano-Glo HiBiT Lytic assay. In outline: as §1

The mark [1] stands for this setting: A375 (BRAF V600E, Class 1), DC50 at 50% degradation.
The mark [2] stands for this setting: A375 (BRAF V600E, Class 1), observed Dmax, % protein degraded relative to DMSO control.
Setting [3] is: BRAF G469A (Class 2), HCT-116 BRAF−/− cells, DC50 at 50% degradation.
Setting [4] is: BRAF G469A (Class 2), HCT-116 BRAF−/− cells, observed Dmax relative to DMSO control.
[5] abbreviates: BRAF D594G (Class 3), HCT-116 BRAF−/− cells, DC50 at 50% degradation.
The mark [6] stands for this setting: BRAF D594G (Class 3), HCT-116 BRAF−/− cells, observed Dmax relative to DMSO control.
Setting [7] is: BRAF G466V (Class 3), HCT-116 BRAF−/− cells, DC50 at 50% degradation.
The mark [8] stands for this setting: BRAF G466V (Class 3), HCT-116 BRAF−/− cells, observed Dmax relative to DMSO control.
Setting [9] is: A375 (BRAF V600E), DC50 at 50%: fitted conc. at Y=50.
[10] abbreviates: A375 (BRAF V600E), percentage protein degraded at maximal compound effect relative to DMSO.
Setting [11] is: Class 2, BRAF G469A, DC50 at 50%: fitted conc. at Y=50.
The mark [12] stands for this setting: HCT-116, Class 2, BRAF G469A, percentage protein degraded at maximal compound effect relative to DMSO.
[13] abbreviates: BRAF D594G, DC50 at 50%: fitted conc. at Y=50.
Setting [14] is: HCT-116, BRAF D594G, percentage protein degraded at maximal compound effect relative to DMSO.
Setting [15] is: BRAF G466V, DC50 at 50%: fitted conc. at Y=50.
The mark [16] stands for this setting: HCT-116, BRAF G466V, percentage protein degraded at maximal compound effect relative to DMSO.

T1 sequence (P15056 whole entry V600E, the tested form may be a part): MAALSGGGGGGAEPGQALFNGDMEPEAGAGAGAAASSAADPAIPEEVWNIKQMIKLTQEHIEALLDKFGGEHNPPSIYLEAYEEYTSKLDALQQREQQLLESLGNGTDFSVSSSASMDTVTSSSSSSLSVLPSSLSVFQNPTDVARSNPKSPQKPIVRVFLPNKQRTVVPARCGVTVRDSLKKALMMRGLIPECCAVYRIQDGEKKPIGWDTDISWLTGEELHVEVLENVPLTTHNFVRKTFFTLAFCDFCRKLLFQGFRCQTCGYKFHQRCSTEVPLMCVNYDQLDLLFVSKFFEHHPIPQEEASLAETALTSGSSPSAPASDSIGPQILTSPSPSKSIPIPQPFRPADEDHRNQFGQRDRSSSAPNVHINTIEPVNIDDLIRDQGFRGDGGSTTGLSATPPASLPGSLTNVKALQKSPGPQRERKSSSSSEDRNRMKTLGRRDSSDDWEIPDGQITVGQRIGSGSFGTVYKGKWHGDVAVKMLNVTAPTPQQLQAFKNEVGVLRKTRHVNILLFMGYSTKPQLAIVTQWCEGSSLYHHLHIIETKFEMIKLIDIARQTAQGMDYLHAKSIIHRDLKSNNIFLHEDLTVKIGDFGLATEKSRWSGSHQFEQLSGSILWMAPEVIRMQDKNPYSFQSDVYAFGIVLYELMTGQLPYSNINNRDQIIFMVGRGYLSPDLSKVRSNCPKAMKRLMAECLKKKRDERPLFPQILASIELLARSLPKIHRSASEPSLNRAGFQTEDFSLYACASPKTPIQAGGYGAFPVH
T2 sequence (P15056 whole entry G469A): as the sequence (P15056 whole entry V600E, the tested form may be a part) above, with G469A, E600V counted along it
T4 sequence (P15056 whole entry G466V): as the sequence (P15056 whole entry V600E, the tested form may be a part) above, with G466V, E600V counted along it
T3 sequence (P15056 whole entry D594G): as the sequence (P15056 whole entry V600E, the tested form may be a part) above, with D594G, E600V counted along it

For the molecule `CCN(C)S(=O)(=O)Nc1cc(Cl)cc(-c2cn(-c3ccc(N4CCN(CC5CCN(c6ccc(N7CCC(=O)NC7=O)cc6)CC5)CC4)cc3)nc2-c2ccncc2)c1F` [Compound 307, 1-(4-{4-[(4-{4-[4-(5-chloro-3-{[ethyl(methyl)sulfamoyl]amino}-2-fluorophenyl)-3-(pyridin-4-yl)-1H-pyrazol-1-yl]phenyl}piperazin-1-yl)methyl]piperidin-1-yl}phenyl)-1,3-diazinane-2,4-dione], the DC50 was less than 10 nM on BRAF V600E (setting [1]), 50 to 500 nM on BRAF G469A (setting [3]), 10 to 50 nM on BRAF D594G (setting [5]) and less than 10 nM on BRAF G466V (setting [7]). Also, the Dmax at BRAF V600E (setting [2]) was more than 70%; at BRAF G469A (setting [4]) it was 30 to 70%; on BRAF D594G (setting [6]), 30 to 70%; at BRAF G466V (setting [8]), more than 70%.

As for `CCCS(=O)(=O)Nc1cccc(-c2nc(C3CCN(CC4CCN(C[C@H]5CC[C@H](Oc6ccc(C7CCC(=O)NC7=O)cc6)CC5)CC4)CC3)sc2-c2ccnc(N)n2)c1F` (mixture of isomers) [Compound 225, N-{3-[5-(2-aminopyrimidin-4-yl)-2-{1-[(1-{[(1r,4r)-4-{4-[(3RS)-2,6-dioxopiperidin-3-yl]phenoxy}cyclohexyl]methyl}piperidin-4-yl)methyl]piperidin-4-yl}-1,3-thiazol-4-yl]-2-fluorophenyl}propane-1-sulfonamide], the DC50 at BRAF V600E (setting [9]) is 10 to 50 nM; on BRAF G469A (setting [11]), more than 500 nM; at BRAF D594G (setting [13]), more than 500 nM; on BRAF G466V (setting [15]), more than 500 nM. The Dmax at BRAF V600E (setting [10]) is more than 70%; on BRAF G469A (setting [12]), less than 30%; at BRAF D594G (setting [14]), 30 to 70%; at BRAF G466V (setting [16]), 30 to 70%.

For the molecule `CCCS(=O)(=O)Nc1cccc(-c2nc(C3CCN(C(=O)C4CCN(C(=O)C5CCN(c6ccc(C7CCC(=O)NC7=O)cn6)CC5)CC4)CC3)sc2-c2ccnc(N[C@H](C)CO)n2)c1F` (mixture of isomers) [Compound 180, N-[3-(2-{1-[1-(1-{5-[(3RS)-2,6-dioxopiperidin-3-yl]pyridin-2-yl}piperidine-4-carbonyl)piperidine-4-carbonyl]piperidin-4-yl}-5-(2-{[(2R)-1-hydroxypropan-2-yl]amino}pyrimidin-4-yl)-1,3-thiazol-4-yl)-2-fluorophenyl]propane-1-sulfonamide], the DC50 on BRAF V600E (setting [9]) is less than 10 nM; at BRAF G469A (setting [11]), 10 to 50 nM; at BRAF D594G (setting [13]) it was less than 10 nM; on BRAF G466V (setting [15]), less than 10 nM. In addition, the Dmax on BRAF V600E (setting [10]) is more than 70%; at BRAF G469A (setting [12]), 30 to 70%; at BRAF D594G (setting [14]), 30 to 70%; at BRAF G466V (setting [16]) it was 30 to 70%.

Regarding `O=C1CC[C@H](c2ccc(N3CCC(CN4CCN(c5ccc(-n6cc(-c7cc(Cl)cc(NS(=O)(=O)N8CC[C@@H](F)C8)c7F)c(-c7ccncc7)n6)cc5)CC4)CC3)cc2)C(=O)N1` [Compound 291, (3R)—N-{5-chloro-3-[1-(4-{4-[(1-{4-[(3R)-2,6-dioxopiperidin-3-yl]phenyl}piperidin-4-yl)methyl]piperazin-1-yl}phenyl)-3-(pyridin-4-yl)-1H-pyrazol-4-yl]-2-fluorophenyl}-3-fluoropyrrolidine-1-sulfonamide], the DC50 at BRAF V600E (setting [1]), on BRAF G469A (setting [3]), on BRAF D594G (setting [5]) and on BRAF G466V (setting [7]) was less than 10 nM in each case. The Dmax on BRAF V600E (setting [2]), on BRAF G469A (setting [4]), on BRAF D594G (setting [6]) and on BRAF G466V (setting [8]) was more than 70% throughout.

On to `CCCS(=O)(=O)Nc1cccc(-c2cn(-c3ccc(N4CCN(CC5CCN(c6ccc(C7CCC(=O)NC7=O)c(F)c6)CC5)CC4)cc3)nc2-c2ccncc2)c1F` (racemic) [Compound 19, Rac-N-{3-[1-(4-{4-[(1-{4-[(3R)-2,6-dioxopiperidin-3-yl]-3-fluorophenyl}piperidin-4-yl)methyl]piperazin-1-yl}phenyl)-3-(pyridin-4-yl)-1H-pyrazol-4-yl]-2-fluorophenyl}propane-1-sulfonamide], for which the DC50 on BRAF V600E (setting [9]) is 10 to 50 nM; on BRAF G469A (setting [11]) it was more than 500 nM; at BRAF D594G (setting [13]), 10 to 50 nM; on BRAF G466V (setting [15]) it was 10 to 50 nM. Besides, the Dmax at BRAF V600E (setting [10]) is more than 70%; at BRAF G469A (setting [12]) it was 30 to 70%; at BRAF D594G (setting [14]), 30 to 70%; at BRAF G466V (setting [16]) it was 30 to 70%.

As to `CCCS(=O)(=O)Nc1cc(Cl)cc(-c2cn(-c3ccc(N4CCN(CC5CCN(c6ccc(N7CCC(=O)NC7=O)cc6)CC5)[C@H](C)C4)cc3)nc2-c2ccncc2)c1F` [Compound 277, N-[5-chloro-3-(1-{4-[(3R)-4-({1-[4-(2,4-dioxo-1,3-diazinan-1-yl)phenyl]piperidin-4-yl}methyl)-3-methylpiperazin-1-yl]phenyl}-3-(pyridin-4-yl)-1H-pyrazol-4-yl)-2-fluorophenyl]propane-1-sulfonamide], the DC50 was less than 10 nM at BRAF V600E (setting [1]), 10 to 50 nM at BRAF G469A (setting [3]), 50 to 500 nM at BRAF D594G (setting [5]) and less than 10 nM on BRAF G466V (setting [7]). In addition, the Dmax at BRAF V600E (setting [2]) is more than 70%; on BRAF G469A (setting [4]), 30 to 70%; at BRAF D594G (setting [6]) it was 30 to 70%; on BRAF G466V (setting [8]), more than 70%.

In the case of `O=C1CCN(c2ccc(N3CCC(CN4CCN(c5ccc(-n6cc(-c7cc(Cl)cc(NS(=O)(=O)N8CCCC8)c7F)c(-c7ccncc7)n6)c(F)c5)CC4)CC3)nc2)C(=O)N1` [Compound 370, N-[5-chloro-3-(1-{4-[4-({1-[5-(2,4-dioxo-1,3-diazinan-1-yl)pyridin-2-yl]piperidin-4-yl}methyl)piperazin-1-yl]-2-fluorophenyl}-3-(pyridin-4-yl)-1H-pyrazol-4-yl)-2-fluorophenyl]pyrrolidine-1-sulfonamide], the DC50 is less than 10 nM on BRAF V600E (setting [1]), more than 500 nM on BRAF G469A (setting [3]), less than 10 nM at BRAF D594G (setting [5]) and less than 10 nM at BRAF G466V (setting [7]). Moreover, the Dmax on BRAF V600E (setting [2]) was more than 70%; at BRAF G469A (setting [4]), 30 to 70%; at BRAF D594G (setting [6]) it was 30 to 70%; on BRAF G466V (setting [8]) it was 30 to 70%.

In the case of `C[C@@H]1CN(c2ccc(-n3cc(-c4cc(Cl)cc(NS(=O)(=O)N5CC[C@@H](F)C5)c4F)c(-c4ccncc4)n3)cc2)CCN1CC1CCN(c2ccc([C@H]3CCC(=O)NC3=O)cc2)CC1` [Compound 317, (3R)—N-[5-chloro-3-(1-{4-[(3R)-4-[(1-{4-[(3R)-2,6-dioxopiperidin-3-yl]phenyl}piperidin-4-yl)methyl]-3-methylpiperazin-1-yl]phenyl}-3-(pyridin-4-yl)-1H-pyrazol-4-yl)-2-fluorophenyl]-3-fluoropyrrolidine-1-sulfonamide], the DC50 on BRAF V600E (setting [1]), on BRAF G469A (setting [3]), at BRAF D594G (setting [5]) and at BRAF G466V (setting [7]) was less than 10 nM throughout. Besides, the Dmax on BRAF V600E (setting [2]) is more than 70%; on BRAF G469A (setting [4]), more than 70%; at BRAF D594G (setting [6]), 30 to 70%; on BRAF G466V (setting [8]) it was more than 70%.

On to `CCCS(=O)(=O)Nc1cccc(-c2nc(C3CCN(C(=O)CC4CCN(C5CCN(c6ccc7c(c6)C(=O)N(C6CCC(=O)NC6=O)C7=O)CC5)CC4)CC3)sc2-c2ccnc(N)n2)c1F` (racemic) [Compound 250, Rac-N-{3-[5-(2-aminopyrimidin-4-yl)-2-{1-[2-(1′-{2-[(3R)-2,6-dioxopiperidin-3-yl]-1,3-dioxo-2,3-dihydro-1H-isoindol-5-yl}-[1,4′-bipiperidin]-4-yl)acetyl]piperidin-4-yl}-1,3-thiazol-4-yl]-2-fluorophenyl}propane-1-sulfonamide], for which the DC50 is 50 to 500 nM on BRAF V600E (setting [1]), more than 500 nM on BRAF G469A (setting [3]), more than 500 nM at BRAF D594G (setting [5]) and more than 500 nM on BRAF G466V (setting [7]). Also, the Dmax on BRAF V600E (setting [2]) was more than 70%; on BRAF G469A (setting [4]), less than 30%; at BRAF D594G (setting [6]), 30 to 70%; on BRAF G466V (setting [8]), 30 to 70%.
